We go through one compound from US7375124B2, “Use of α-phenylthiocarboxylic and α-phenyloxycarboxylic acids with serum-glucose-lowering and serum-lipid-lowering activity” (Sigma-Tau Industrie Farmaceutiche Riunite S.p.A., priority 2002, dated 2008).

SMILES strings stand for the structures.

The target in one data set is T1, mPPARαLBD/Gal4DBD (Mus musculus, UniProt P23204).
T1 construct: expressed in transfected cells; host or cells: COS-7 (monkey kidney fibroblasts)
T1 sequence (P23204 239-466 limits assumed): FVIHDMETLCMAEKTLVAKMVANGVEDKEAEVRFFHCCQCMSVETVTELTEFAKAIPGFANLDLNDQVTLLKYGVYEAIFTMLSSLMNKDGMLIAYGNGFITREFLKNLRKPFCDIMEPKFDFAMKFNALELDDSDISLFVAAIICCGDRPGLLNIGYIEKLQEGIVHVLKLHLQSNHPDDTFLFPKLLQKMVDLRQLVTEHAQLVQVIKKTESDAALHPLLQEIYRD
Description: Transactivation assay mediated by mPPARαLBD/Gal4DBD in COS-7 cells (CAT reporter). It is filed as cell-based. From the text: In this model a transactivation assay is used in which the expression vector mPPARαLBD/Gal4 DBD allows the synthesis by the transfected cell of a chimeric protein, in which the ligand binding domain (LBD) of PPARα is fused with the DNA binding domain (DBD) of the transcription factor GAL4 of yeast [Luckow B. et al., Nucleic Acids Res. 15, 5490 (1987)]. Simultaneously, a plasmid (pG5CAT) is transfected which contains 5 copies of the high-affinity binding site for GAL4 (also called UAS, upstream activating sequence), upstream of the viral promoter E1b fused with the CAT reporter gene [Moya-Camarena S. Y. et al., J. Lipid Res. 40 (8), 1426-33 (1999)]. This model eliminates interference by possible endogenous receptors.
This is due to the fact that the activation of E1b and the production of CAT will occur exclusively thanks to the interaction of GAL4 DBD with its own response element (UAS). Since the transcription factor GAL4 is not expressed in […] cells, transactivation of the reporter gene can take place only when, as a result of the interaction of a ligand with the LBD of PPARα, the chimeric protein PPARα/GAL4 recognises the UAS sequence on the plasmid pG5CAT. Together with the expression vector and the reporter vector the cells were also transfected with the plasmid pCH110 which provides the internal control for the efficiency of transfection and the normalisation of the results.
A monkey kidney fibroblast cell line (COS-7) was used [Elbrecht A. et al., J. Biol. Chem. 274 (12), 7913-22 (1999)]. The cells were co-transfected with the reporter vector, the expression plasmid coding for the fusion protein Gal4 DBD/PPARαLBD and the control vector pCH110. The cells were exposed to increasing concentrations of the study compounds and CAT activity was evaluated. Untreated cells were used as controls.
Monkey kidney fibroblasts (COS-7) were cultured according to the usual cell culture techniques, at 37° C. in a 5% v/v carbon dioxide atmosphere using as the growth medium DMEM (Dulbecco's modified Eagle's medium) modified with 3.7 g/l of sodium bicarbonate, 4 mM L-glutamine, 4.5 g/l of glucose, 1 mM sodium pyruvate and 10% v/v of foetal bovine serum, in the presence of streptomycin 100 μg/ml and penicillin 100 U/ml final.
The cells were co-transfected using the transfection reagent FuGENE6 (Roche), consisting of a defined mixture of lipids capable of complexing the DNA and of transporting it into the cells. Twenty-four hours prior to transfection the cells were plated at a density of 1.2×10^5 cells/well in 12-well plates and maintained at 37° C. in a 5% v/v CO2 atmosphere. […] Briefly, the transfection mixture containing 0.8 μg of the expression vector, 1.6 μg of the reporter vector, 0.8 μg of the control vector and 9 μl of the FuGENE6 reagent per well was added directly to the cells in the presence of culture medium devoid of serum. After 5 hours, the transfection medium was replaced by 1 ml of culture medium complete with serum and antibiotics in the presence or absence of the molecules to be tested at 3 different concentrations (2, 20 and 100 μM). Wy-14,643 (2 μM), a known ligand of PPARα, was used as the positive reference compound.
After 48 hours' incubation at 37° C. in a 5% v/v CO2 atmosphere, the cells were washed twice with 1 ml of phosphate buffer (PBS) and removed mechanically from the wells in TEN buffer (Tris[hydroxymethyl]aminomethane 10 mM pH 8, ethylenediamine-tetraacetic acid 1 mM pH 8, sodium chloride 0.1 M). After centrifuging for 3 minutes at 1000 rpm, the cells were resuspended in 65 μl of lysis buffer (Tris-HCl 0.25 M, pH 8) and then lysed thanks to three rapid freeze-thaw cycles. The insoluble cellular materials (debris) were removed by centrifuging at 15,000 rpm for 15 minutes at 4° C., and the supernatant was recovered and used for the CAT and β-galactosidase activity assays. […]

The term melting point denotes the temperature, or range, at which the solid turns liquid. `CC(C)(Sc1cccc(OCCc2ccc(Cl)cc2)c1)C(=O)O` [Example 2, 2-[3-[2-(4-chlorophenyl)ethoxy]phenylthio]-2-methylpropanoic acid] registered a melting point of 105 to 106 °C. Besides, the “Activation of reporter gene CAT as a percentage of the reference compound (WY-14,643 2 μM = 100%)” value at mPPARαLBD/Gal4DBD (2 μM) is 69.7%. Also, the “Activation of reporter gene CAT as a percentage of the reference compound (WY-14,643 2 μM = 100%)” value on mPPARαLBD/Gal4DBD (20 μM) turned out to be 103.6%. On mPPARαLBD/Gal4DBD (100 μM), the “Activation of reporter gene CAT as a percentage of the reference compound (WY-14,643 2 μM = 100%)” value is recorded as 280.9%.
